Reference: ChEMBL document CHEMBL4028808, “Design and synthesis of selective CDK8/19 dual inhibitors: Discovery of 4,5-dihydrothieno[3',4':3,4]benzo[1,2-d]isothiazole derivatives” (Bioorg Med Chem, 2017)
≈ marks a conversion by molar mass, not a printed value. Calls of active or inactive are those of the source. The rule behind the calls is not given here.

Assays:
[1] = Aqueous solubility of the compound in DMSO at pH 6.8 by HPLC method; format: physicochemical
[2] = biological target: Serine/threonine-protein kinase Chk1 (Homo sapiens) (UniProt O14757); assay: Inhibition of CHK1 (unknown origin) at <1 uM using CHKtide as substrate preincubated for 5 mins followed by substrate addition measured after 10 mins in presence of [gamma33P]ATP by scintillation counter method
[3] = biological target: RAC-alpha serine/threonine-protein kinase (Homo sapiens) (UniProt P31749); assay: Inhibition of Akt1 (unknown origin) at <1 uM using AKT1 substrate pretreated for 5 mins followed by substrate addition after 20 mins in presence of [gamma33P]ATP by scintillation counter method
Chain of RAC-alpha serine/threonine-protein kinase (Homo sapiens) (P31749 whole entry): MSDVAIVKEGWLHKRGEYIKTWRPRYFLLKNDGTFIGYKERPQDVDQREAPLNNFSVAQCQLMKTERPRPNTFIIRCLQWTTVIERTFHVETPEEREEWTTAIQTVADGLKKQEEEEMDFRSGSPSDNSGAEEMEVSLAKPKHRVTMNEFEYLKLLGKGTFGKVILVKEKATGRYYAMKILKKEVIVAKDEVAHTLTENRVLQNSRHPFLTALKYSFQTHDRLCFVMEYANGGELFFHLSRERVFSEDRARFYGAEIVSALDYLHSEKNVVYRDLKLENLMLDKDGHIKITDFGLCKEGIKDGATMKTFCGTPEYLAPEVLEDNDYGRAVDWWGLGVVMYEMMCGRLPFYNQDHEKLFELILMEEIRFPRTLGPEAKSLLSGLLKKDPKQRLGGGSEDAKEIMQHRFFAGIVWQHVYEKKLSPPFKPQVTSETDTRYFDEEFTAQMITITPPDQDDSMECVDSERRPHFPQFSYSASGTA

[4] = biological target: Insulin receptor (Homo sapiens) (UniProt P06213); assay: Inhibition of IRK (unknown origin) at <1 uM using biotinylated poly[Glu:Tyr] (4:1) as substrate pretreated for 5 mins followed by substrate addition measured after 60 mins by Alphascreen assay
[5] = biological target: T1, Cyclin-dependent kinase 8 (Homo sapiens, UniProt P49336); assay: Binding affinity to partial length wild-type human CDK8 (M1 to T360residues) expressed in bacterial expression system by kinome scan assay
T1 sequence (P49336 whole entry): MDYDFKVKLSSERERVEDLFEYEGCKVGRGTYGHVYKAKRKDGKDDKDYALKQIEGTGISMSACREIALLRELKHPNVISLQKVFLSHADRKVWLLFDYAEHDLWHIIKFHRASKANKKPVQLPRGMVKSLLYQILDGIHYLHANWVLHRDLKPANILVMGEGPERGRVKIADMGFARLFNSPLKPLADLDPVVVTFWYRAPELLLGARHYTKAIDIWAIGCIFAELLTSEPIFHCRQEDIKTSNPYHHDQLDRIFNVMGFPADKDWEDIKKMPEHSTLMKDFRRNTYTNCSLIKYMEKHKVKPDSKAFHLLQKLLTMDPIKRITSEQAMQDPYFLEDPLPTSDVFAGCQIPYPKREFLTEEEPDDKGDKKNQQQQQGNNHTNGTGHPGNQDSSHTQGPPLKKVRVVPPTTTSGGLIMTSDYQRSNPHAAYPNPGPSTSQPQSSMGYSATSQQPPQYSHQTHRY

[6] = biological target: MAP kinase-activated protein kinase 2 (Homo sapiens) (UniProt P49137); assay: Inhibition of MAPKAPK2 (unknown origin) at <1 uM using KKLNRTLSVA-NH2 as substrate preincubated for 5 mins followed by substrate addition measured after 10 mins in presence of [gamma33P]ATP by scintillation counter method
[7] = Intrinsic clearance in human liver microsomes at 1 umol/l after 15 to 30 mins in presence of NADPH by LC-MS/MS analysis; format: ADME, microsome; conditions: read-out: CLH
[8] = biological target: CDK2/Cyclin A2 (Homo sapiens) (UniProt P24941+P20248); assay: Inhibition of CDK2/cyclin A (unknown origin) at 1 uM using histone H1 as substrate preincubated for 5 mins followed by substrate addition measured after 20 mins in presence of [gamma33P]ATP by scintillation counter method relative to control; format: protein-complex assay
[9] = Mean residence time in ICR mouse plasma at 1 mg/kg, po administered as cassette dose by LC-MS/MS analysis; format: ADME, organism-based
[10] = biological target: Homeodomain-interacting protein kinase 1 (Homo sapiens, UniProt Q86Z02); conditions: 300 nM
[11] = biological target: Protein kinase C theta type (Homo sapiens) (UniProt Q04759); assay: Inhibition of PKCtheta (unknown origin) at 1 uM using MBP as substrate preincubated for 5 mins followed by substrate addition measured after 60 mins in presence of [gamma33P]ATP by scintillation counter method relative to control
Chain of Protein kinase C theta type (Homo sapiens) (Q04759 whole entry, looked up): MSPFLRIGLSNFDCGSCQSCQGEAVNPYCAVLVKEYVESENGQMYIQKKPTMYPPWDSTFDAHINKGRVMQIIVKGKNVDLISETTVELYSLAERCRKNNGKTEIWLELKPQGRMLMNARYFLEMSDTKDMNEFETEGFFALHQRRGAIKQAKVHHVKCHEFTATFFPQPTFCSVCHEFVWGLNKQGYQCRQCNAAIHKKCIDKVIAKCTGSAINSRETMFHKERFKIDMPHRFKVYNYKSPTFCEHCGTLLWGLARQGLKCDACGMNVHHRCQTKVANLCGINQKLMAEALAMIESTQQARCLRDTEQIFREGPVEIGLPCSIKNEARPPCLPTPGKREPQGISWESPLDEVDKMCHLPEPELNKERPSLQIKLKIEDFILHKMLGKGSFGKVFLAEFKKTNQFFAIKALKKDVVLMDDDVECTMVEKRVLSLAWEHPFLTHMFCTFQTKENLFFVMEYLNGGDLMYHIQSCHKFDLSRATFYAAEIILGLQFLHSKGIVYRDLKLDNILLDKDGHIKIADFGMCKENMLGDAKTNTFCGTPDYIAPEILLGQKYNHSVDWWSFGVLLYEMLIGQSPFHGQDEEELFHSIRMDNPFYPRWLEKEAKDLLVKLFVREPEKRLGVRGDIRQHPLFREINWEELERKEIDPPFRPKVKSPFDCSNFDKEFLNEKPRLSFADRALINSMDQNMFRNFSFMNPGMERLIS

Mus musculus [12] = assay: AUC (0 to 24 hrs) in ICR mouse plasma at 0.1 mg/kg, iv administered as cassette dose by LC-MS/MS analysis; format: ADME, organism-based; design: dose 0.1 mg/kg, time < 24 hr, route intravenous; conditions: in vivo
[13] = biological target: Serine/threonine-protein kinase PLK1 (Homo sapiens) (UniProt P53350); assay: Inhibition of PLK1 (unknown origin) at 1 uM using alpha-casein as substrate preincubated for 5 mins followed by substrate addition measured after 60 mins in presence of [gamma33P]ATP by scintillation counter method relative to control
[14] = Half life in ICR mouse plasma at 0.1 mg/kg, iv or 1 mg/kg, po administered as cassette dose by LC-MS/MS analysis; format: ADME, organism-based
[15] = biological target: Phosphatidylinositol 4,5-bisphosphate 3-kinase catalytic subunit alpha isoform (Homo sapiens) (UniProt P42336); assay: Inhibition of PI3Kalpha (unknown origin) at <1 uM
[16] = Volume of distribution at steady state in ICR mouse plasma at 0.1 mg/kg, iv administered as cassette dose by LC-MS/MS analysis; format: ADME, organism-based; conditions: read-out: Vdss
[17] = biological target: T1, Cyclin-dependent kinase 8; assay: Inhibition of CDK8 in human SW480 cells assessed as decrease in STAT1 phosphorylation at Ser727 after 2 hrs by Western blot method
[18] = biological target: Mitogen-activated protein kinase kinase kinase 5 (Homo sapiens) (UniProt Q99683); assay: Inhibition of ASK1 (unknown origin) at 1 uM using MBP as substrate preincubated for 5 mins followed by substrate addition measured after 60 mins in presence of [gamma33P]ATP by scintillation counter method relative to control
Chain of Mitogen-activated protein kinase kinase kinase 5 (Homo sapiens) (Q99683 whole entry): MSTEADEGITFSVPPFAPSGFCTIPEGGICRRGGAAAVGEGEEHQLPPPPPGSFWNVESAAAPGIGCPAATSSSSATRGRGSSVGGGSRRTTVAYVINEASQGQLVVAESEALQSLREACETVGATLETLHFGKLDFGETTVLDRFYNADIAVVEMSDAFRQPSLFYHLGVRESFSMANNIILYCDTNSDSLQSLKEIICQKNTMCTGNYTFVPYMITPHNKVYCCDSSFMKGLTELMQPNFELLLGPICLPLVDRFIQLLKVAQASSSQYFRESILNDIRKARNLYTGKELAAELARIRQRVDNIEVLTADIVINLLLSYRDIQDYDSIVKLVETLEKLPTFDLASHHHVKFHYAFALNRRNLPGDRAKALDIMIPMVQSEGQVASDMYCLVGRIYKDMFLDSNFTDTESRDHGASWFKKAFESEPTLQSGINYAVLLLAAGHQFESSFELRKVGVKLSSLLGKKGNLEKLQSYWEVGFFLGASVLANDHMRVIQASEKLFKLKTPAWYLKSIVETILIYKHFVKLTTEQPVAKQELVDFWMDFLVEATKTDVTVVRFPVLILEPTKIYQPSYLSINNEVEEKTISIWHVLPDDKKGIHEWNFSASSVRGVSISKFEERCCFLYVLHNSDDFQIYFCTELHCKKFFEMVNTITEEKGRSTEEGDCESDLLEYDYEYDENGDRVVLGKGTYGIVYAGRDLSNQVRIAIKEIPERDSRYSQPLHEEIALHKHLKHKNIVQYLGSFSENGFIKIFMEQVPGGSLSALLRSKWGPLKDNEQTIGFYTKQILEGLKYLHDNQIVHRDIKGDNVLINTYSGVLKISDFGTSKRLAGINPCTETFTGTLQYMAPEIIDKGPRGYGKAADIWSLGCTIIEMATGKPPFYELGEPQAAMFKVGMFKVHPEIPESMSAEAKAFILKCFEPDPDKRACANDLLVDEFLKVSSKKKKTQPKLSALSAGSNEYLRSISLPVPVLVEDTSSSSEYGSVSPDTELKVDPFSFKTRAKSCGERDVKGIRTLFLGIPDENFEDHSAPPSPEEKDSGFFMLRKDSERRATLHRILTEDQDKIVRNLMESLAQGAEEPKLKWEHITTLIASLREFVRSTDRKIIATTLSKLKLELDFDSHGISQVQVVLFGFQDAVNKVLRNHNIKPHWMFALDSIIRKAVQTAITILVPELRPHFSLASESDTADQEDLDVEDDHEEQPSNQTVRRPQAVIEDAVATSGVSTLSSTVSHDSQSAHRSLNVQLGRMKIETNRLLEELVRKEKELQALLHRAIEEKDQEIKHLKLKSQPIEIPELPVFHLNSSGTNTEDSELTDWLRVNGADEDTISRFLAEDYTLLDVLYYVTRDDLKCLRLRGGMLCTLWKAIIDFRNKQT

[19] = biological target: Cyclin-dependent kinase 19 (Homo sapiens, UniProt Q9BWU1); conditions: 300 nM
RPMI-8226 = assay: Growth inhibition of human RPMI8226 cells after 196 hrs by CellTiter-Glo luminescence assay; format: functional; conditions: RPMI-8226, 196 h
[20] = Oral bioavailability in ICR mouse plasma at 1 mg/kg administered as cassette dose by LC-MS/MS analysis; format: ADME, organism-based
[21] = biological target: CDC7/DBF4 (Cell division cycle 7-related protein kinase/Activator of S phase kinase) (Homo sapiens) (UniProt Q9UBU7+O00311); assay: Inhibition of CDC7/Dbf4 (unknown origin) at 1 uM using His-tagged MCM2 as substrate preincubated for 5 mins followed by substrate addition measured after 60 mins in presence of [gamma33P]ATP by scintillation counter method relative to control; format: protein-complex assay
Mus musculus [22] = assay: Toxicity in C.B17/Icr scid/scid Jcl mouse assessed as body weight loss at 1.25 mg/kg, po bid administered for 14 days measured post last dose; format: organism-based; conditions: in vivo, 336 h
[23] = biological target: Mitogen-activated protein kinase 14 (Homo sapiens) (UniProt Q16539); assay: Inhibition of p38alpha (unknown origin) at <1 uM using MBP as substrate preincubated for 5 mins followed by substrate addition measured after 60 mins in presence of [gamma32P]ATP by scintillation counter method
Chain of Mitogen-activated protein kinase 14 (Homo sapiens) (Q16539 whole entry, the tested form may be a part): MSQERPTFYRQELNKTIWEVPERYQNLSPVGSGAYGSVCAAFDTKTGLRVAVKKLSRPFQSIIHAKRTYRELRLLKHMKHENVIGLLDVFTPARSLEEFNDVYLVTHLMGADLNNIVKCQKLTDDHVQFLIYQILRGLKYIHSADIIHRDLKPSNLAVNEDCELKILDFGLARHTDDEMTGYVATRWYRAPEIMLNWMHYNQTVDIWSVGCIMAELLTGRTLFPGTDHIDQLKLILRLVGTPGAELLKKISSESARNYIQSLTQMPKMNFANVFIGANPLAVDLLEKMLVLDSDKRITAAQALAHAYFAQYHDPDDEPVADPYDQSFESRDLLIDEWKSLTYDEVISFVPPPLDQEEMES

[24] = biological target: Dual specificity tyrosine-phosphorylation-regulated kinase 1A (Homo sapiens) (UniProt Q13627); assay: Binding affinity to partial length wild-type human DYRK1A (H129 to S509 residues) expressed in mammalian expression system assessed as unbound drug level at 300 nM by KINOMEscan assay
[25] = biological target: Cyclin-dependent kinase 9 (Homo sapiens, UniProt P50750); assay: Inhibition of CDK9 (unknown origin) at 1 uM relative to control
[26] = biological target: Hepatocyte growth factor receptor (Homo sapiens) (UniProt P08581); assay: Inhibition of cMET (unknown origin) at <1 uM
Chain of Hepatocyte growth factor receptor (Homo sapiens) (P08581 whole entry): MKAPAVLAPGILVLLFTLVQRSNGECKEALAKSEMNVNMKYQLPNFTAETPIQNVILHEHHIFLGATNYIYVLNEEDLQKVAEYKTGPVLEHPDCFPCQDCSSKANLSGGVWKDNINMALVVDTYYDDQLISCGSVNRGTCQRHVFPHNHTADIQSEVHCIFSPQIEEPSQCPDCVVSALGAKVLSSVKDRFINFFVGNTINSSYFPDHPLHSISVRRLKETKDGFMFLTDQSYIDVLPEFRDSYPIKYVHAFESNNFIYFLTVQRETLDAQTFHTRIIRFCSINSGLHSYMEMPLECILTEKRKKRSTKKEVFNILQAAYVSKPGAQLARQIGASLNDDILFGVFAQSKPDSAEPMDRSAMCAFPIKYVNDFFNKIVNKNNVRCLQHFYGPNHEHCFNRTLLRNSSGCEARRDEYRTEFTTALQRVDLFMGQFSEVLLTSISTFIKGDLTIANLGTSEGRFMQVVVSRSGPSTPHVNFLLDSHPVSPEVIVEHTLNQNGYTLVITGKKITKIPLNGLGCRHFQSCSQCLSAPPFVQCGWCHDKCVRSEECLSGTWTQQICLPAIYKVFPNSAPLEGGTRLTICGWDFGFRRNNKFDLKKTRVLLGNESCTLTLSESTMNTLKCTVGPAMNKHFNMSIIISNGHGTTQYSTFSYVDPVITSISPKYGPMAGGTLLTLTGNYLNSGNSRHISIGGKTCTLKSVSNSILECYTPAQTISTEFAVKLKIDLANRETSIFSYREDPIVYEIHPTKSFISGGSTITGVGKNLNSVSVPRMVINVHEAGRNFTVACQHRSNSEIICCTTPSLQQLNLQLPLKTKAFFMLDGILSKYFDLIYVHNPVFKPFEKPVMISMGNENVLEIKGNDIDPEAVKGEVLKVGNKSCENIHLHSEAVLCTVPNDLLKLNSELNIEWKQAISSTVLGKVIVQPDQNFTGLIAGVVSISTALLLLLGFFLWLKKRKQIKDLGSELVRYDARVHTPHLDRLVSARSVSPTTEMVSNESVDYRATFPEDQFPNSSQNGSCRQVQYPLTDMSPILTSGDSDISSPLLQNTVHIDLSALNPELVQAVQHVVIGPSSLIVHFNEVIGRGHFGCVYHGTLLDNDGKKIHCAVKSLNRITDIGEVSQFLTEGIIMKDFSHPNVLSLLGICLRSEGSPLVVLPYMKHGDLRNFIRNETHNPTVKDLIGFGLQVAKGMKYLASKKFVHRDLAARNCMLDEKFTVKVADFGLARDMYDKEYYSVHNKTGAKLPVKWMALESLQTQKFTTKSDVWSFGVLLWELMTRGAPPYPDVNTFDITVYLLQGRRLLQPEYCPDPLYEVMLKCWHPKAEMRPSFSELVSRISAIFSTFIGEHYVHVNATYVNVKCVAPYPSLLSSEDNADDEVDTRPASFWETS

[27] = biological target: Ephrin type-A receptor 5 (Homo sapiens) (UniProt P54756); assay: Inhibition of EphA5 (unknown origin) at <1 uM using biotinylated poly[Glu:Tyr] (4:1) as substrate pretreated for 5 mins followed by substrate addition measured after 10 mins by Alphascreen assay
[28] = biological target: Homeodomain-interacting protein kinase 2 (Homo sapiens) (UniProt Q9H2X6); assay: Binding affinity to partial length wild-type human HIPK2 (M153 to S564 residues) expressed in mammalian expression system assessed as unbound drug level at 300 nM by KINOMEscan assay
[29] = biological target: Cyclin-C/Cyclin-dependent kinase 19 (Homo sapiens) (UniProt Q9BWU1+P24863); conditions: 1 uM
Description: Inhibition of kinase tracer-236 binding to GST-tagged CDK19/CyclinC (unknown origin) at 1 uM after 60 mins by TR-FRET assay relative to control

For `COCCNC(=O)c1ccc(Oc2sc(C(N)=O)c3c2-c2sncc2CC3)cn1`, which solubility [1] is on record?
The solubility was 47 µg/mL (≈ 109 µM).

And the inhibition [2]?
The inhibition was “inactive”.

What about the inhibition [3] of the same compound?
The inhibition was “inactive”.

What about the inhibition [4] of the same compound?
Its inhibition is “inactive”.

And the Kd [5]?
Its Kd is 46 nM.

What about the inhibition [6] of the same compound?
The inhibition was “inactive”.

What about the microsomal CLint at 1 µM [7] of the same compound?
The microsomal CLint at 1 µM was 21 µL/min/mg.

What about the inhibition [8] of the same compound?
The inhibition was 62%.

What about the MRT [9] of the same compound?
The MRT was 2.06 h.

What about the Fu [10] of the same compound?
Its Fu is 0.32%.

And the inhibition [11]?
Its inhibition is 2%.

And the AUC (Mus musculus [12])?
Its AUC is 90.4 ng·h/mL.

What about the inhibition [13] of the same compound?
Its inhibition is 4%.

What about the half-life [14] of the same compound?
The half-life was 2.1 h.

What about the inhibition [15] of the same compound?
Its inhibition is “inactive”.

And the Vd [16]?
Its Vd is 2.14 L/kg.

What about the EC50 [17] of the same compound?
The EC50 was 1.3 nM.

What about the inhibition [18] of the same compound?
The inhibition was 0%.

And the Fu [19]?
The Fu was 0.046%.

And the GI50 (RPMI-8226)?
Its GI50 is 2.5 nM.

What about the bioavailability [20] of the same compound?
Its bioavailability is 98.5%.

What about the inhibition [21] of the same compound?
The inhibition was 33%.

And the Activity (Mus musculus [22])?
The Activity was 0.9%.

What about the inhibition [23] of the same compound?
The inhibition was “inactive”.

What about the Fu [24] of the same compound?
Its Fu is 0.47%.

What about the inhibition [25] of the same compound?
Its inhibition is 83%.

What about the inhibition [26] of the same compound?
Its inhibition is “inactive”.

And the inhibition [27]?
The inhibition was “inactive”.

And the Fu [28]?
Its Fu is 0.48%.

What about the inhibition [29] of the same compound?
The inhibition was 100%.
